Test results taken from US11850253B2, “Two component compositions” (Asamedic AS, priority 2017, dated 2023).

Experiment: Dissolution of ASA together with sodium carbonate (one component) in 15 ml pure water in two-component device
Type: physicochemical
Protocol: In the following example ASA and the disodium salt of carbonic acid (Na2CO3) are dissolved at the same time in 15 ml pure water.
300 mg ASA and 258-263 mg sodium carbonate (Na2CO3) were placed together in the powder compartment of the test device used in example 1, and 15 ml of pure water was filled into the container (bottle) of said device. After releasing the ASA and sodium carbonate into the water, the solution was shaken until all ASA was dissolved.

CC(=O)Oc1ccccc1C(=O)O [ASA, acetylsalicylic acid]
pH of the solutions after dissolution of ASA and the carbonate salt (300 mg ASA and 258-263 mg Na2CO3, 15 ml pure water): 9.41-9.43
Time before ASA was dissolved (300 mg ASA and 258-263 mg Na2CO3 together as powder, 15 ml pure water): approx. 120 sec.
